IC50 data for 31 molecules are collected here from US12655139B2, “Isoxazolidines as RIPK1 inhibitors and use thereof” (SANOFI, priority 2020, dated 2026).

Structures can show the parent of a compound that is named as a salt. Where two headings read alike, the source gives them in different places.

The target of assay [1] is T1, hRIPK1 (aa 1-375) fusion protein (Homo sapiens, UniProt Q13546).
T1 construct: hRIPK1 (aa 1-375) fusion protein
T1 sequence (Q13546 1-375): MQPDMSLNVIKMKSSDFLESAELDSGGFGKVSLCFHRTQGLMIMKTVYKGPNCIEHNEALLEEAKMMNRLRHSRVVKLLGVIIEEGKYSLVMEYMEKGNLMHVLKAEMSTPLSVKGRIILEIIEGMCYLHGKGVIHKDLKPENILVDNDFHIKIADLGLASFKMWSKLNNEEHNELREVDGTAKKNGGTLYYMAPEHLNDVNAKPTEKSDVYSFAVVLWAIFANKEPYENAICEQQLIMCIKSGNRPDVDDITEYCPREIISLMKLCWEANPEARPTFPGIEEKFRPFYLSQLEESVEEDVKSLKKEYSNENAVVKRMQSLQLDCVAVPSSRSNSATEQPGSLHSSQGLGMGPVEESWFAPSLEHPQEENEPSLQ
Briefly: ADP-Glo kinase assay, RIPK1 autophosphorylation. The assay is classed as biochemical. How it is done: Evaluation of Receptor-Interacting Protein Kinase 1 Inhibition.
The catalytic activity of RIPK1 was measured by monitoring the conversion of Adenosine triphosphate (ATP) to Adenosine diphosphate (ADP) due to autophosphorylation using an ADP-Glo kinase kit (Promega, catalog no. V9104).
After another 240 minutes incubation at room temperature, 5 μl Promega ADP-Glo reagent I were added to quench the reaction and deplete unconsumed ATP. After an incubation period of 30 minutes, 10 μl Promega ADP-Glo detection reagent II were added resulting in conversion of ADP to ATP, which generates a light-reaction between luciferase and luciferin. Luminescence was quantified after 30 minutes with a Pherastar FS (BMG LABTECH, Ortenberg).
The adjustment was obtained by nonlinear regression using the Levenberg Marquardt algorithm.
(In general: ADP-Glo first removes unused ATP, then detects ADP through luciferase.)

In a further assay the test system is U937 cells. Briefly: Cellular assay in U937 cells on cell death (necroptosis), TNFα/zVAD.fmk. In kind it is cell-based. The text has this:
Cellular Assay in U937 Cells to Measure the Activity of RIPK1-Inhibitors on Cell Death (Necroptosis).
Cell death was quantified in 96 well plates by determination of the amount of live cell using a CellTiter 96 AQueous reagent (Promega), a calorimetric method to measure the amount of live cells by reducing tetrazolium compound [3-(4,5-dimethylthiazol-2-yl)-5-(3-carboxymethoxyphenyl)-2-(4-sulfophenyl)-2H-tetrazolium, inner salt; MTS] into formazan. Absorbance of formazan was read at 490 nm. The inhibitory activity of the test compound was quantified in a concentration response curve (CRC) experiment. Compounds were obtained as 10 mM stock solutions and were diluted 1 to 10 volumes with DMSO to yield a 1 mM solution. From this solution 2 μl were diluted with 998 μl growth medium. 100 μl of 2 μM compound solution was further diluted sequentially with a dilution factor of 2.5 by adding 150 μl growth medium. A total of 10 concentrations were tested ranging from 10 μM to 0.26 nM or from 1 μM to 0.07 nM.
U937 cells were cultured in RPMI1640 Glutamax and 10% heat inactivated FBS. 50 μl cell suspension containing 1×10^6 cells/ml supplemented with 50 μM zVAD.fmk (Benzyloxycarbonyl-Val-Ala-Asp (OMe) fluoromethylketone) and 100 ng/ml recombinant human TNFα were dispensed in each well of a 96-well plate. 50 μl of compound dilutions (see above) were added and the cell suspension incubated overnight (18 to 24 hours) at 37° C., 5% CO2 in a humidified atmosphere (95% rH). High (no compound) and low control (no TNFα, zVAD.fmk) were tested with 7 replicates; all compound concentrations were tested in duplicates on each experimental plate.
CellTiter 96 Aqueous reagent was mixed (100 μl PMS (phenazine methosulfate) solution/2 ml MTS (3-(4,5-[…])-5-(3-carboxymethoxyphenyl)-2-(4-sulfophenyl)-2H-tetrazolium, inner salt) solution) and 20 μl were added per well. After 4 hours incubation at 37° C. (5% CO2 95% rH) optical density was measured at 490 nm on a microplate reader (Tecan Infinite M1000).
The % inhibition is expressed as percentage of the maximal inhibition value obtained in the absence of TNFα/zVAD.fmc.

Where [2] appears, read: Homo sapiens, U-937, Table 2, read-out: U937 IC50.

In general, IC50 refers to the concentration at which inhibition is half-maximal. Regarding `Cc1ccc(C2CCON2C(=O)C2CCN(c3ncc(C)c(C(N)=O)n3)CC2F)cn1` (single isomer, unassigned) [compound 186], the half-inhibitory concentration (IC50) is 0.0384 µM in assay [1] (Table 1) and 0.148 µM in the assay with U937 cells (Table 2, read-out: U937 IC50). As for `N#CCOc1nc(N2CCC(C(=O)N3OCC[C@H]3c3cncc(C#N)c3)CC2)ncc1F` [Ex. 028], the IC50 was 0.0173 µM in assay [1] (Table 1) and 0.00105 µM in the assay with U937 cells (setting [2]). In the same order, the values of `NC(=O)c1cc(N2CCC(C(=O)N3OCC[C@H]3c3ccc(N)nc3)CC2)ncn1` (racemic) [Ex. 038*] are 0.0899 µM and 1.71 µM.

For `CCOC(=O)c1nccc(N2CCC(C(=O)N3OCC[C@H]3c3cncc(C#N)c3)CC2)n1` [compound 149, ethyl 4-[4-[(3S)-3-(5-cyano-3-pyridyl)isoxazolidine-2-carbonyl]-1-piperidyl]pyrimidine-2-carboxylate], the IC50 in assay [1] (Table 1) stood at 0.37 µM; in the assay on U937 cells (setting [2]), 6.17 µM. The corresponding values for `N#Cc1ccnc(N2CCC(F)(C(=O)N3OCC[C@H]3c3cnccn3)C(F)(F)C2)n1` (stereo partly drawn) [compound 124, 2-[3,3,4-trifluoro-4-[(3S)-3-pyrazin-2-ylisoxazolidine-2-carbonyl]-1-piperidyl]pyrimidine-4-carbonitrile] are 0.0392 µM and 0.0313 µM. As for `Cc1ccc(C2CCON2C(=O)C2CCN(c3ncc(C)c(C(N)=O)n3)CC2F)cn1` (single isomer, unassigned) [Ex. 185], the IC50 in assay [1] (Table 1) was 0.297 µM; with U937 cells (Table 2, read-out: U937 IC50), 1.15 µM.

On to `Cc1ncc([C@@H]2CCON2C(=O)C2CCN(c3ncc(F)c(C(N)=O)n3)CC2)cc1C#N` [Ex. 085], for which the half-inhibitory concentration (IC50) in assay [1] (Table 1) came out at 0.0153 µM; in the assay on U937 cells (setting [2]) it was 0.0206 µM. The corresponding values for `Cc1cc([C@@H]2CCON2C(=O)C2CCN(c3cc(C(N)=O)ncn3)CC2)co1` [Ex. 109] are 0.0193 µM and 0.00531 µM. The corresponding values for `Cc1cncc([C@@H]2CCON2C(=O)C2CCN(c3nccc(C#N)n3)CC2)n1` [Ex. 045] are 0.0172 µM and 0.0664 µM. As to `Cc1nsc(N2CCC(C(=O)N3OCC[C@H]3c3cncc(C#N)c3)CC2)n1` [Ex. 113], the values for the half-inhibitory concentration (IC50) (in assay [1] (Table 1); in the assay on U937 cells (setting [2])) were 0.122 µM and 0.773 µM, respectively. The corresponding values for `CS(=O)(=O)c1nc(N2CCC(C(=O)N3OCC[C@H]3c3cncc(C#N)c3)CC2)ncc1F` [Ex. 105] are 0.0112 µM and 7.94 µM. The corresponding values for `N#Cc1nc([C@@H]2CCON2C(=O)C2CCN(c3ncc(F)c(C(N)=O)n3)CC2)cs1` [Ex. 189] are 0.0303 µM and 0.102 µM. In the same order, the values of `N#Cc1cncc([C@@H]2CCON2C(=O)C2CCN(c3cc(F)ncn3)CC2)c1` [compound 169, (S)-5-(2-(1-(6-fluoropyrimidin-4-yl)piperidine-4-carbonyl)isoxazolidin-3-yl)nicotinonitrile] are 0.0234 µM and 0.119 µM.

For `Cc1cc([C@@H]2CCON2C(=O)C2CCN(c3cc(C#N)ncn3)CC2)co1` [compound 163, (S)-6-(4-(3-(5-methylfuran-3-yl)isoxazolidine-2-carbonyl)piperidin-1-yl)pyrimidine-4-carbonitrile], the half-maximal inhibitory concentration (IC50) in assay [1] (Table 1) stood at 0.0208 µM; with U937 cells (setting [2]), 0.00604 µM.

Consider `Cc1ncc([C@@H]2CCON2C(=O)C2CCN(c3nccc(C(N)=O)n3)CC2)cc1F` [compound 137, 2-[4-[(3S)-3-(5-fluoro-6-methyl-3-pyridyl)isoxazolidine-2-carbonyl]-1-piperidyl]pyrimidine-4-carboxamide], for which the half-maximal inhibitory concentration (IC50) in assay [1] (Table 1) was 0.0216 µM; in the assay on U937 cells (setting [2]), 0.0165 µM.

Consider `COc1nc(N2CCC(C(=O)N3OCC[C@H]3c3cncc(C)n3)CC2)ncc1F` [Ex. 116], for which the values for the concentration for half-maximal inhibition (IC50) (in assay [1] (Table 1); in the assay with U937 cells (setting [2])) were 0.0214 µM and 0.0045 µM, respectively. The corresponding values for `Cc1cc([C@@H]2CCON2C(=O)C2CCN(c3nccc(C(N)=O)n3)CC2)co1` [compound 110, (S)-2-(4-(3-(5-methylfuran-3-yl)isoxazolidine-2-carbonyl)piperidin-1-yl)pyrimidine-4-carboxamide] are 0.0173 µM and 0.00169 µM. In turn, `COC(=O)c1ccnc(N2CCC(C(=O)N3OCC[C@H]3c3cncc(C#N)c3)CC2)n1` [compound 100] yielded a half-inhibitory concentration (IC50) in assay [1] (Table 1) of 0.0245 µM. Take `Cc1coc([C@@H]2CCON2C(=O)C2CCN(c3nccc(C#N)n3)CC2)c1` [compound 150, (S)-2-(4-(3-(4-methylfuran-2-yl)isoxazolidine-2-carbonyl)piperidin-1-yl)pyrimidine-4-carbonitrile]: the values for the IC50 (in assay [1] (Table 1); with U937 cells (setting [2])) were 0.069 µM and 0.0235 µM, respectively. The corresponding values for `N#Cc1ccnc(N2CCC(C(=O)N3OCCC3c3cncc(CO)c3)CC2)n1` (racemic) [Ex. 031*] are 0.0515 µM and 0.395 µM.

`COC(=O)c1ccnc(N2CCC(C(=O)N3OCCC3c3cncc(F)c3)CC2)n1` (racemic) [Ex. 051*, Methyl 2-[4-[3-(5-fluoro-3-pyridyl)isoxazolidine-2-carbonyl]-1-piperidyl]pyrimidine-4-carboxylate]: the IC50 in assay [1] (Table 1) turned out to be 0.134 µM; in the assay on U937 cells (setting [2]), 0.678 µM. Turning to `Cc1cncc([C@@H]2CCON2C(=O)C2CCN(c3nccc(C(N)=O)n3)CC2)n1` [Ex. 044], the 50% inhibitory concentration (IC50) in assay [1] (Key compound table 4) was determined as 0.009 µM; in the assay with U937 cells (Homo sapiens, U-937, Key compound table 4, read-out: U937 IC50 (uM) Mean), 0.009 µM. With `CC1(C(=O)N2OCC[C@H]2c2cncc(C#N)c2)CCN(c2nccc(C(N)=O)n2)CC1` [Ex. 019], the results for the half-maximal inhibitory concentration (IC50) (in assay [1] (Table 1); in the assay with U937 cells (setting [2])) were 0.0235 µM and 0.0573 µM, respectively. The corresponding values for `N#Cc1cncc([C@@H]2CCON2C(=O)C2(F)CCN(c3nccc(C#N)n3)CC2(F)F)c1` (mixture of isomers) [Ex. 123] are 0.0263 µM and 0.0442 µM. The corresponding values for `Cc1cncc([C@@H]2CCON2C(=O)C2CCN(c3cc(C#N)ncn3)CC2)c1` [compound 133, (S)-6-(4-(3-(5-methylpyridin-3-yl)isoxazolidine-2-carbonyl)piperidin-1-yl)pyrimidine-4-carbonitrile] are 0.0198 µM and 0.0494 µM.

As to `Cc1c(F)cncc1[C@@H]1CCON1C(=O)C1CCN(c2nccc(C(N)=O)n2)CC1` [compound 141, (S)-2-(4-(3-(5-fluoro-4-methylpyridin-3-yl)isoxazolidine-2-carbonyl)piperidin-1-yl)pyrimidine-4-carboxamide], the IC50 in assay [1] (Table 1) stood at 0.0819 µM; with U937 cells (setting [2]), 0.254 µM.

For `N#Cc1cc([C@@H]2CCON2C(=O)C2CCN(c3ncc(F)c(C(N)=O)n3)CC2)cnn1` [Ex. 178], the 50% inhibitory concentration (IC50) came out at 0.112 µM in assay [1] (Table 1) and 1.3 µM in the assay with U937 cells (setting [2]). In the same order, the values of `Cn1cc(C2CCON2C(=O)C2CCN(c3nccc(C(N)=O)n3)CC2)cn1` (racemic) [Ex. 046*] are 0.0651 µM and 0.605 µM. As for `N#Cc1cncc([C@@H]2CCON2C(=O)C2CCN(c3ncc(F)c(OCC(N)=O)n3)CC2)c1` [Ex. 035], the IC50 is 0.0661 µM in assay [1] (Table 1) and 0.183 µM in the assay with U937 cells (setting [2]). As for `NC(=O)c1cc(N2CCC(C(=O)N3OCCC3c3ccc4nccn4c3)CC2)ncn1` (racemic) [Example 015, 6-[4-[3-imidazo[1,2-a]pyridin-6-ylisoxazolidine-2-carbonyl]-1-piperidyl] pyrimidine-4-carboxamide TFA salt], in assay [1] (Table 1), the IC50 worked out at 13.1 µM. Still for that read-out and setting: to `N#Cc1cncc([C@H]2CCON2C(=O)C2CCN(c3nccc(C(N)=O)n3)CC2)c1` [Ex. 016] belongs 18.8 µM.
